Test results taken from patent US8959984B2, “Proteome-wide quantification of small molecule binding to cellular target proteins” (priority 2007, dated 2015).

Legend:
Experiment in all cases: binding to VI16742 beads (HeLa lysate, SILAC MS)
FN3KRP (IPI00099986) = molecular target: T1, FN3KRP (IPI00099986) (Homo sapiens, UniProt Q9HA64)
T1 construct: endogenous in cells; host or cells: HeLa S3
T1 sequence (Q9HA64 1-309): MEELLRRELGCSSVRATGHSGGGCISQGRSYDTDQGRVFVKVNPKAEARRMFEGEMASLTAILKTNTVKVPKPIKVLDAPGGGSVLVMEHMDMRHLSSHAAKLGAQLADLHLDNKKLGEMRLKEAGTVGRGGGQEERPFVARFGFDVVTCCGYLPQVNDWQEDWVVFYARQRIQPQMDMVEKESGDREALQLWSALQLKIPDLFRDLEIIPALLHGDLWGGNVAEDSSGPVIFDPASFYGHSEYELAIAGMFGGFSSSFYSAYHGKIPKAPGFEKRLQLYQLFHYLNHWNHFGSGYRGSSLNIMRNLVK
Description: (§1) In an alternative implementation of the chemical proteomic approach according to the invention, the broadly-selective pyrido[2,3-d]pyrimidine-based kinase inhibitor VI16742 has been used for affinity capture (FIG. 10a). […] As shown by gene ontology analysis, the corresponding molecular functions were highly over-represented in proteins specifically retained by the inhibitor resin (FIG. 10b).

DPH5 (IPI00375824) = molecular target: T2, DPH5 (IPI00375824) (Homo sapiens, UniProt Q9H2P9)
T2 construct: endogenous in cells; host or cells: HeLa S3
T2 sequence (Q9H2P9 1-285): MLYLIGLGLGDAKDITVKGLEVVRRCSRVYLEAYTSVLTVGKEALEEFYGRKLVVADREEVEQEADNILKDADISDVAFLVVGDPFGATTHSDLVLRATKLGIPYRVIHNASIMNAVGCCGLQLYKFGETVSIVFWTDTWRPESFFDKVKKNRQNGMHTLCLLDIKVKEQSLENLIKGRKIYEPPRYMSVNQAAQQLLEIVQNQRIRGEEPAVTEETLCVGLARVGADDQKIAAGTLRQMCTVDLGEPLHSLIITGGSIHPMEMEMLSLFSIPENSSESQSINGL
Description: as §1

[1] = molecular target: T3, CHED (CDC2L5, IPI00456970) (Homo sapiens, UniProt Q14004)
T3 construct: endogenous in cells; host or cells: HeLa S3 cell lysate
T3 sequence (Q14004 whole entry): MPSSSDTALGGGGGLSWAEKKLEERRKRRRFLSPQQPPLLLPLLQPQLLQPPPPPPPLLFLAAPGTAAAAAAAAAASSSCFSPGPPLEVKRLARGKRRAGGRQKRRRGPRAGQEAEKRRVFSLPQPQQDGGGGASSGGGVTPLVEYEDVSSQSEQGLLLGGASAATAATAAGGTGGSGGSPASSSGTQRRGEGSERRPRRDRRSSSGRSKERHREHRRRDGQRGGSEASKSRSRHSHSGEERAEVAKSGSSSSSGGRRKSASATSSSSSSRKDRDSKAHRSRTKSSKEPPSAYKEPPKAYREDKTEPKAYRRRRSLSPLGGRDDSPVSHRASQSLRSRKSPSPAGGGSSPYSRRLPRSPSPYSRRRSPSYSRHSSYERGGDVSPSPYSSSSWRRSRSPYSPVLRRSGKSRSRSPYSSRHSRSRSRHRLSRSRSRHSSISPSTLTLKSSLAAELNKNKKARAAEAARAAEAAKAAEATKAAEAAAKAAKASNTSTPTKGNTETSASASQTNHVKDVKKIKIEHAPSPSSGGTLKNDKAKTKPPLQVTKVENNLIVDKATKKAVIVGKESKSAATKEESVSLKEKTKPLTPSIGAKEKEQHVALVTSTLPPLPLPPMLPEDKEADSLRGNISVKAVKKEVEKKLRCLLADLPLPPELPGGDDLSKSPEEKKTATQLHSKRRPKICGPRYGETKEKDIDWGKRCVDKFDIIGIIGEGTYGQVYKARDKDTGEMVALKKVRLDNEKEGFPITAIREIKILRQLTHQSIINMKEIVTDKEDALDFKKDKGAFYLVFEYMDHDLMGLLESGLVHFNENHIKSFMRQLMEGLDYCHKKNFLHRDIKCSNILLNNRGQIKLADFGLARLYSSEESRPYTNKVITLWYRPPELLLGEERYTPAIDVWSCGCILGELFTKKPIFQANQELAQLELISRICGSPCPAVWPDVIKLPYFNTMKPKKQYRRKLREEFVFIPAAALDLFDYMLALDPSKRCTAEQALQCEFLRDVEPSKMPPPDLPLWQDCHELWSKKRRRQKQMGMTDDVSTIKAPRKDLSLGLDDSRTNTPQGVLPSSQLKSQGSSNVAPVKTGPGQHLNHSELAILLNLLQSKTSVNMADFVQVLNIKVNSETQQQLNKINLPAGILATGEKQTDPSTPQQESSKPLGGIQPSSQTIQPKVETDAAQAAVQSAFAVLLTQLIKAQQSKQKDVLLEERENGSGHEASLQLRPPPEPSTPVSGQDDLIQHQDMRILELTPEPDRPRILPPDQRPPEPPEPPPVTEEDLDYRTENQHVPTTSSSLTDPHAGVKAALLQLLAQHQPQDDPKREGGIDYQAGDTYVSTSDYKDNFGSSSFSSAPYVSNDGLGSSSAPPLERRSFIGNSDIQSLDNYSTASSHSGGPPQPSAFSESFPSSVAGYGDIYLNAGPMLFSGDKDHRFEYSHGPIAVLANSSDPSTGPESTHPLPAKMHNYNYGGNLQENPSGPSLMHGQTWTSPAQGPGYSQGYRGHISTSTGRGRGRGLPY
Description: as §1

[2] = molecular target: T4, CRK7 (CRKRS, IPI00868781) (Homo sapiens, UniProt Q9NYV4)
T4 construct: endogenous in cells; host or cells: HeLa S3 cell lysate
T4 sequence (Q9NYV4 whole entry): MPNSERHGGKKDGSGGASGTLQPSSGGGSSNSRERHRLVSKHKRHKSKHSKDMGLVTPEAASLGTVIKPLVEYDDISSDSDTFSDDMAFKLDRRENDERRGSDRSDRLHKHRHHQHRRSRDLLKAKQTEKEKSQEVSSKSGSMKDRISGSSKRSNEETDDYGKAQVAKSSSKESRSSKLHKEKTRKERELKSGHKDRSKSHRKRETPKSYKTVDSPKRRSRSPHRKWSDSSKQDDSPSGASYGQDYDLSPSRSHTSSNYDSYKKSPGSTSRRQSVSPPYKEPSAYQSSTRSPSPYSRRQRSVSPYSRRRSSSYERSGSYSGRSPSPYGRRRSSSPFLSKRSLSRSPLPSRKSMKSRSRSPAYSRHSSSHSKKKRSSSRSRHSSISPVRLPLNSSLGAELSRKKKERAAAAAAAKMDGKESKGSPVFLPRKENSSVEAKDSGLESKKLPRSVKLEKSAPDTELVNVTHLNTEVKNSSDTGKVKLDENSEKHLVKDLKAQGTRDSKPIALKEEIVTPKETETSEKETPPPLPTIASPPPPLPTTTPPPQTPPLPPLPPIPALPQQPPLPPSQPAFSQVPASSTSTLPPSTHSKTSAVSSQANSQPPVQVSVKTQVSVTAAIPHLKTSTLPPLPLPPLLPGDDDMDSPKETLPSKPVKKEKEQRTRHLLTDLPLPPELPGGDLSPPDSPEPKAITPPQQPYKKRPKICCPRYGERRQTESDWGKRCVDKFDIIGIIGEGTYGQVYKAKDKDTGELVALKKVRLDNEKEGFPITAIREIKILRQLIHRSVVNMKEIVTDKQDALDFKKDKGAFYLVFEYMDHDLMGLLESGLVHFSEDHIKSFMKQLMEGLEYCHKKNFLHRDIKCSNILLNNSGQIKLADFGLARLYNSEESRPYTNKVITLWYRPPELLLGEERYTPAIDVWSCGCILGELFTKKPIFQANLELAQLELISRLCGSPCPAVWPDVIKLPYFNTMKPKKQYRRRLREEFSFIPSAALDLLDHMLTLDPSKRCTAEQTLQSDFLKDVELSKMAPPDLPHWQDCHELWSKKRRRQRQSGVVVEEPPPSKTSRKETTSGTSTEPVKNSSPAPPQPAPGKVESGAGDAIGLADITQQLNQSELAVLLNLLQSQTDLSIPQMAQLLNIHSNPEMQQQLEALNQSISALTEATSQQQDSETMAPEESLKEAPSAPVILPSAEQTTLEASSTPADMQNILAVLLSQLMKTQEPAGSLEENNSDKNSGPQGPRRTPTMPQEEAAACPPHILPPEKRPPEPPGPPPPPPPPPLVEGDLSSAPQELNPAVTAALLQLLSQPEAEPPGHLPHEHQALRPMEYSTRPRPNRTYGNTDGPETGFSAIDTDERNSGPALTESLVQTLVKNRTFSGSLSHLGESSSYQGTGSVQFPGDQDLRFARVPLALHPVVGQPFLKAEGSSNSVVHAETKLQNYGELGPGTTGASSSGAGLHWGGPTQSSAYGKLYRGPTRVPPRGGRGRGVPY
Description: as §1

SLK (IPI00022827) = molecular target: T5, SLK (IPI00022827) (Homo sapiens, UniProt Q9H2G2)
T5 construct: endogenous in cells; host or cells: HeLa S3
T5 sequence (Q9H2G2 whole entry): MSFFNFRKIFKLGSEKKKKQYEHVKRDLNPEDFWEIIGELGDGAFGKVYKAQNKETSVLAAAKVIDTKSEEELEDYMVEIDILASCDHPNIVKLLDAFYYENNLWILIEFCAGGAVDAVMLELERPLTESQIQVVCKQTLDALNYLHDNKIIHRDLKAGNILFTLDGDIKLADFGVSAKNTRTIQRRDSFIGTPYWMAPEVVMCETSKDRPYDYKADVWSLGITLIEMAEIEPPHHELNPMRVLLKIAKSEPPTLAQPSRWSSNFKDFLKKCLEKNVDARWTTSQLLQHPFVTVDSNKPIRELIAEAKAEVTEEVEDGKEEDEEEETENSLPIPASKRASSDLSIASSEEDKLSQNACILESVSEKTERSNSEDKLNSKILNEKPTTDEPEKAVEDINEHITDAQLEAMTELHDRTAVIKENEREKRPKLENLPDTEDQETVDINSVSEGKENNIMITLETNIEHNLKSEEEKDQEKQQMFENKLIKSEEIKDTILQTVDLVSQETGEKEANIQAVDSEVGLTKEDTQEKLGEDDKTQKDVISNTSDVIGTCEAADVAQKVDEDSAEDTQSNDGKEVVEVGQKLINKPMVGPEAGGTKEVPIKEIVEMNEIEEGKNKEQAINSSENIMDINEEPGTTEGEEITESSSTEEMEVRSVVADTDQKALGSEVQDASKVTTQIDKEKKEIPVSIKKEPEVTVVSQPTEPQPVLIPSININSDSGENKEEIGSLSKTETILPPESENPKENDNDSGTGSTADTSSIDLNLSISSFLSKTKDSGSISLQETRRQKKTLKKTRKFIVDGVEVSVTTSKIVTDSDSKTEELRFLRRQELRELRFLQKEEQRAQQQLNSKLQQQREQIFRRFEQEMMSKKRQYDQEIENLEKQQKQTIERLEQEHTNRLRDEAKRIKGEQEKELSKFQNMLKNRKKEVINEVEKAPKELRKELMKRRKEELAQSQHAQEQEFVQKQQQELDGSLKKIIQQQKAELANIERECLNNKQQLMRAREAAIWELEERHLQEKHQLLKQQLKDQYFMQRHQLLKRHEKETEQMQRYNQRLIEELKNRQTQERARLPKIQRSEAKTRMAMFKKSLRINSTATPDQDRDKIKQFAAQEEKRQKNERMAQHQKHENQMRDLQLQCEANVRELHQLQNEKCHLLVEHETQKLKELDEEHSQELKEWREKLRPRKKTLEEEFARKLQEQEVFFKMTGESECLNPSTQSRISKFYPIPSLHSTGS
Description: as §1

[3] = molecular target: T6, PHKg2 (PHKG2, IPI00012891) (Homo sapiens, UniProt P15735)
T6 construct: endogenous in cells; host or cells: HeLa S3
T6 sequence (P15735 1-406): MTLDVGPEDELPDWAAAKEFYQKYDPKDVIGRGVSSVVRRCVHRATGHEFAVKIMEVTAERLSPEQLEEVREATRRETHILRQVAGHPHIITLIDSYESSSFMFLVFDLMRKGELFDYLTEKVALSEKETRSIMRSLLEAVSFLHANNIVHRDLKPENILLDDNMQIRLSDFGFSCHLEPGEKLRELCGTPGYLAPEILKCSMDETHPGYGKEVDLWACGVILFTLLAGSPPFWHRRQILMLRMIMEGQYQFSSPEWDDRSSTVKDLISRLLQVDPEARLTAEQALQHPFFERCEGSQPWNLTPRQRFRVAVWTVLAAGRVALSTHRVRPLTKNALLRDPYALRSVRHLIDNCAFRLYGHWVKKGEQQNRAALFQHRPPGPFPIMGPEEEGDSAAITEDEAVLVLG
Description: as §1

MAP2K3 (IPI00218858) = molecular target: T7, MAP2K3 (IPI00218858) (Homo sapiens, UniProt P46734)
T7 construct: endogenous in cells; host or cells: HeLa S3
T7 sequence (P46734 1-347): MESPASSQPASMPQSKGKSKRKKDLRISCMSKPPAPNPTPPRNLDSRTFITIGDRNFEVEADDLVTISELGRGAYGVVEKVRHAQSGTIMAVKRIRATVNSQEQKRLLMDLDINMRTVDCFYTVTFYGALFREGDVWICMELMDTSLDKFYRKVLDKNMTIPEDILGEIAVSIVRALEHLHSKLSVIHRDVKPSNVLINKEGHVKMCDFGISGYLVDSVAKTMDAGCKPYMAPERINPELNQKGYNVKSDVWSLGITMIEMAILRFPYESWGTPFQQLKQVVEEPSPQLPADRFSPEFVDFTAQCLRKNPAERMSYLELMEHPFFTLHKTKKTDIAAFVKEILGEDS
Description: as §1

[4] = control beads vs first incubation

CC(C)n1c(=O)ccc2cnc(Nc3ccc(OCCN)cc3)nc21 [V16742]
r (3 MG/1 MG LYSATE) (FN3KRP (IPI00099986); 3 mg vs 1 mg lysate): 2.02 | r (5 h/2.5 h INC. TIME) (FN3KRP (IPI00099986); 5 h vs 2.5 h incubation time): 0.95 | rAVERAGE (CTRL/1 INC) (FN3KRP (IPI00099986); [4]): 0.07 | Ki (FN3KRP (IPI00099986); immobilized VI16742): 117 µM | rAVERAGE (2 INC/1 INC) (FN3KRP (IPI00099986); second vs first incubation): 0.69 | r (5 h/2.5 h INC. TIME) (DPH5 (IPI00375824); 5 h vs 2.5 h incubation time): 2.72 | rAVERAGE (CTRL/1 INC) (DPH5 (IPI00375824); [4]): 0.03 | Ki (DPH5 (IPI00375824); immobilized VI16742): 211 µM | rAVERAGE (2 INC/1 INC) (DPH5 (IPI00375824); second vs first incubation): 0.80 | r (3 MG/1 MG LYSATE) ([1]; 3 mg vs 1 mg lysate): 5.31 | r (5 h/2.5 h INC. TIME) ([1]; 5 h vs 2.5 h incubation time): 1.42 | rAVERAGE (CTRL/1 INC) [1, 4]: 0.05 | Ki ([1]; immobilized VI16742): 84.6 µM | rAVERAGE (2 INC/1 INC) ([1]; second vs first incubation): 0.62 | r (3 MG/1 MG LYSATE) ([2]; 3 mg vs 1 mg lysate): 3.21 | r (5 h/2.5 h INC. TIME) ([2]; 5 h vs 2.5 h incubation time): 1.04 | rAVERAGE (CTRL/1 INC) [2, 4]: 0.07 | Ki ([2]; immobilized VI16742): 90.7 µM | rAVERAGE (2 INC/1 INC) ([2]; second vs first incubation): 0.64 | r (3 MG/1 MG LYSATE) (SLK (IPI00022827); 3 mg vs 1 mg lysate): 3.22 | r (5 h/2.5 h INC. TIME) (SLK (IPI00022827); 5 h vs 2.5 h incubation time): 1.87 | rAVERAGE (CTRL/1 INC) (SLK (IPI00022827); [4]): 0.05 | Ki (SLK (IPI00022827); immobilized VI16742): 217 µM | rAVERAGE (2 INC/1 INC) (SLK (IPI00022827); second vs first incubation): 0.81 | r (3 MG/1 MG LYSATE) ([3]; 3 mg vs 1 mg lysate): 2.14 | r (5 h/2.5 h INC. TIME) ([3]; 5 h vs 2.5 h incubation time): 1.33 | rAVERAGE (CTRL/1 INC) [3, 4]: 0.10 | Ki ([3]; immobilized VI16742): 296 µM | rAVERAGE (2 INC/1 INC) ([3]; second vs first incubation): 0.85 | r (5 h/2.5 h INC. TIME) (MAP2K3 (IPI00218858); 5 h vs 2.5 h incubation time): 1.60 | rAVERAGE (CTRL/1 INC) (MAP2K3 (IPI00218858); [4]): 0.05 | Ki (MAP2K3 (IPI00218858); immobilized VI16742): 150 µM | rAVERAGE (2 INC/1 INC) (MAP2K3 (IPI00218858); second vs first incubation): 0.74
